How the values were obtained:
[1] = tested on: H460 (NRF2 pathway mutant cell line with high AKR1C3 expression); experiment: In vitro cell proliferation assay (CellTiter-Glo), H460; assay type: cell-based; details: Homo sapiens, NCI-H460, 72 h; H460 cells, 3 days, CellTiter-Glo, top concentration 10 μM; read-out: H460 Qualified absolute AC50
Outline: (§1)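 Luminescent CellTiter-Glo readout after 3-day compound exposure at 37 °C; 8-point 1:5 series, top 10 μM final. Seeding: 800 cells/well for H460, 2000 cells/well for Hara, RPMI-1640 plus 10% FBS. AC50 and percentage activity derived after normalizing to DMSO (1%) and MG132 (30 μM) controls.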

[2] = tested on: Hara (NRF2 pathway wild type cell line with low AKR1C3 expression); experiment: In vitro cell proliferation assay (CellTiter-Glo), Hara; assay type: cell-based; details: 72 h; Hara cells, 3 days, CellTiter-Glo, top concentration 10 μM; read-out: HARA Qualified absolute AC50
Outline: as §1

[3] = tested on: NCI-H23; experiment: Expanded lung cancer cell line proliferation assay; assay type: cell-based; details: Homo sapiens; NCI-H23, 72 h, average of PrestoBlue and Cell Titer Glo; AKR1C3 1 TPM; read-out: Absolute Qualified AC50
Outline: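 Activity was scored after 72 h of compound treatment, with AC50 derived from dose-response curves normalized between 0.3% DMSO and 30 μM MG132 controls. Top final concentration was 1 μM across 8 points, and each value averages PrestoBlue and CellTiter-Glo results.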

[4] = tested on: NCI-H1944 human lung cancer xenograft; experiment: In vivo efficacy in NCI-H1944 xenograft; set-up: species or system mice
Protocol: Compound 40 Dose Dependent In Vivo Efficacy in High AKR1C3 Expressing Human Lung Cancer Xenograft NCI-H1944
Anti-cancer efficacy of Compound 40 was assessed in the NCI-H1944 human lung cancer xenograft model in mice that expresses high levels of AKR1C3. NCI-H1944 tumors were established in nude female mice by injection of a tumor cells subcutaneously. When tumors reached approximately 200 mm^3, mice were randomized according to tumor volume into treatment groups (n=8 per group) on Day 16.

| Structure (SMILES) | AC50 [1] [nM] | AC50 [2] [nM] | AC50 [3] [nM] | ΔT/ΔC ([4]; 75 mg/kg po, qd, Day 44) [%] | Tumor response ([4]; 75 mg/kg qd po) | Regression ([4]; 150 mg/kg po, qd, Day 44) [%] | Regression ([4]; 300 mg/kg po, qd, Day 44) [%] | Tumor response ([4]; all dose levels) | Tumor response ([4]; dose levels above 75 mg/kg qd, po) |
| --- | --- | --- | --- | --- | --- | --- | --- | --- | --- |
| CN1c2ccc(F)cc2C(=O)CC12CCN(C(=O)NCc1ccc(F)c(NCCO)c1)CC2 [Example 36, 6′-fluoro-N-(4-fluoro-3-((2-hydroxyethyl)amino)benzyl)-1′-methyl-4′-oxo-3′,4′-dihydro-1′H-spiro[piperidine-4,2′-quinoline]-1-carboxamide] | 78 | 1560 | > 1000 |  |  |  |  |  |  |
| O=C1CC2(CCN(C(=O)NCc3ccc(F)cc3)CC2)Nc2ccc(F)cc21 [Example 40] | 83 | 1790 | > 1000 | 4.9 | Tumor stasis | 98.5 | 100 | efficacy benefit | deep tumor regression |

From patent US11970497B2, “Tricyclic AKR1C3 dependent KARS inhibitors” (Novartis AG, priority 2019, dated 2024)
